In US6596772B1, “Phosphate mimics and methods of treatment using phosphatase inhibitors” (Sugen, Inc., priority 1999, dated 2003) one finds IC50 data, which are given here for ten compounds.

Molecules are shown by their SMILES. pIC50: −log10 of the molar value. Where two headings read alike, the source gives them in different places.

As usually defined, the pIC50 is the IC50 on a negative log10 scale, so that one unit is a factor of ten.

What all share (format): biochemical
The target in one test is T1, PTP PEST (Homo sapiens, UniProt Q05209).
T1 construct: made in house; host or cells: E. coli BL-21 (pGEX 6P-1)
T1 sequence (Q05209 1-343 limits assumed): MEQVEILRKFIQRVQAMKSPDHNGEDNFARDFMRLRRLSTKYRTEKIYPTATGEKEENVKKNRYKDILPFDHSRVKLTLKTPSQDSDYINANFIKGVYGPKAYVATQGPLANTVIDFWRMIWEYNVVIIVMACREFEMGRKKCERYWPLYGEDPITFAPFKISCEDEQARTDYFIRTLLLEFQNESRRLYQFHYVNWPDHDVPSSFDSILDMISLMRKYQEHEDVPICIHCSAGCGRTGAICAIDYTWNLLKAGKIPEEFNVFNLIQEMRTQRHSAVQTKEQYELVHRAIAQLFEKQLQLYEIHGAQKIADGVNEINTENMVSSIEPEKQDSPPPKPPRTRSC
The test is described as follows: PTP IC50 assay, pNPP or FDP as substrate. The conditions noted are these: 25° C. The protocol:
(§1) The following in vitro assay procedure is preferred to determine the level of activity and effect of the different compounds of the present invention on one or more of the PTPs. Similar assays can be designed along the same lines for any PTP using techniques well known in the art.
(§2) The catalytic assays described herein are performed in a 96-well format. The general procedure begins with the determination of PTP optimal pH using a three-component buffer system that minimizes ionic strength variations across a wide range of buffer pH. Next, the Michaelis-Menten constant, or Km, is determined for each specific substrate-PTP system. This Km value is subsequently used as the substrate reaction concentration for compound screening. Finally, the test PTP is exposed to varying concentrations of compound for fifteen minutes and allowed to react with substrate for ten minutes. The results are plotted as percent inhibition versus compound concentration and the IC50 interpolated from the plot.
(§3) All assays were performed using pNPP or FDP as substrate. The optimum pH was determined for each PTP used.
(§4) PTPase activity was assayed at 25° C. in a 100-μl reaction mixture containing an appropriate concentration of pNPP or FDP as substrate. The reaction was initiated by addition of the PTP and quenched after 10 min by addition of 50 μl of IN NaOH. The non-enzymatic hydrolysis of the substrate was corrected by measuring the control without the addition of the enzyme. The amount of p-nitrophenol produced was determined from the absorbance at 410 nm. To determine the kinetic parameter, Km, the initial velocities were measured at various substrate concentrations and the data were fitted to the Michaelis equation where velocity=(Vmax*[S])/(Km+[S]), and [S]=substrate reaction concentration.
(§5) The effect of the compounds on PTP was evaluated at 25° C. using pNPP or FDP as substrate. PTP was pre-incubated for fifteen minutes with various concentrations of compound. Substrate was then added at a fixed concentration (usually equal to the Km previously calculated). After 10 minutes, NaOH was added to stop the reaction. The hydrolysis of pNPP was followed at 410 nm on the Biotek Powerwave 200 microplate scanning spectrophotometer. The percent inhibition was calculated as follows: Percent Inhibition=[(control signal−compound signal)/control signal] ×100%. The IC50 was then determined by interpolation of a percent inhibition versus compound concentration plot.
(§6) Plasmids designed for bacterial GST-PTP fusion protein expression were derived by insertion of PCR-generated human PTP fragments into pGEX vectors (Pharmacia Biotech). Several of these constructs were then used to subclone phosphatases into pFastBac-1for expression in Sf-9 insect cells. Oligonucleotides used for the initial amplification of PTP genes are shown below. The cDNAs were prepared using the Gilbo BRL superscript preamplification system on RNAs purchased from Clontech.
The PTP PEST CDNA was amplified from an HeLa cDNA library (Clonetech RNA) using the following oligonucleotides: 5′oligo: 5′-[…]-3′ (SEQ ID NO: 14) 3′oligo: 5′-[…]-3′ (SEQ ID NO: 15) It was subsequently ligated into the Eco RI/Xho I sites of pGEX 6P-1.

The next test concerns the target T2, PTP MU (Homo sapiens, UniProt P28827).
T2 construct: made in house; host or cells: E. coli BL-21 (pGEX 6P-1)
The test is described as follows: PTP IC50 assay, pNPP or FDP as substrate. The settings on record: pNPP or FDP as substrate, 25° C.; read-out: PTP IC50 Mu. The procedure: as §1, §2, §3, §4, §5, §6
The PTP Mu cDNA was amplified from a human lung cDNA library (Clontech) using the following oligonucleotides; 5′oligo: 5′-[…]-3′ (SEQ ID NO: 18) 3′oligo: 5′-[…]-3′ (SEQ ID NO: 19) It was subsequently ligated into the Eco RI/Xho I sites of pGEX 6P-1.

In the next test the target is T3, PTP ZETA (Homo sapiens, UniProt P23471).
T3 construct: made in house; host or cells: E. coli BL-21 (pGEX 6P-1)
T3 sequence (P23471 1667-2028 limits assumed): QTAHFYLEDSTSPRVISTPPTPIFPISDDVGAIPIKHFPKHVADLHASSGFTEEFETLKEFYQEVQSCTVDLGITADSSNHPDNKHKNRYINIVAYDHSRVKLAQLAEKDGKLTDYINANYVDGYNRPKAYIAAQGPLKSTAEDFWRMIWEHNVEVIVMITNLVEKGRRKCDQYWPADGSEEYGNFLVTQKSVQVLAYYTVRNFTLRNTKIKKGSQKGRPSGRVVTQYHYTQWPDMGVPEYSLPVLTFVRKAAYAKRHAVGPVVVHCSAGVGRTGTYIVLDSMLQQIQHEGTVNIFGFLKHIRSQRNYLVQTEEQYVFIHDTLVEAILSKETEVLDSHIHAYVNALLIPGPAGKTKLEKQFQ
The test can be described thus: PTP IC50 assay, pNPP or FDP as substrate. The settings on record: 25° C. The protocol: as §1, §2, §3, §4, §5, §6
The PTP Zeta cDNA was amplified from human placenta single strand cDNA (Clontech RNA) using the following oligonucleotides 5′oligo: 5′-[…]-3′ (SEQ ID NO: 10) 3′oligo: 5′-[…]-3′ (SEQ ID NO: 11) and subsequently ligated into pGEX 6P-1 Eco RI/Xho I sites.

For another test, the target named is T4, PTP ALPHA (Homo sapiens, UniProt P18433).
T4 construct: RTPα intracellular domain construct was obtained; made in house; host or cells: E. coli BL-21 (pGEX 3X)
The test can be described thus: PTP IC50 assay, pNPP or FDP as substrate. The conditions noted are these: 25° C. The protocol: as §1, §2, §3, §4, §5, §6
RTPα intracellular domain construct was obtained, Schlessinger et al., U.S. Pat. No. 5,888,794, the contents of which are hereby incorporated in their entirety into the present application. The RTPα fragment was cloned into pGEX 3× using the following procedure. The portion from EclX I/Xma III/Eag I (N-terminus blunted by Klenow) to Eco RV was cloned into the Sma I site. The EclX I site is approximately 15 residues downstream of the transmembrane domain.

Another test deals with T5, PTP DEP1 (Homo sapiens, UniProt Q12913).
T5 construct: GST-fusion proteins encompassing the entire cytoplasmic domain was done by PCR; made in house; host or cells: E. coli BL-21 (pGEX 2T)
T5 sequence (Q12913 997-1337 limits assumed): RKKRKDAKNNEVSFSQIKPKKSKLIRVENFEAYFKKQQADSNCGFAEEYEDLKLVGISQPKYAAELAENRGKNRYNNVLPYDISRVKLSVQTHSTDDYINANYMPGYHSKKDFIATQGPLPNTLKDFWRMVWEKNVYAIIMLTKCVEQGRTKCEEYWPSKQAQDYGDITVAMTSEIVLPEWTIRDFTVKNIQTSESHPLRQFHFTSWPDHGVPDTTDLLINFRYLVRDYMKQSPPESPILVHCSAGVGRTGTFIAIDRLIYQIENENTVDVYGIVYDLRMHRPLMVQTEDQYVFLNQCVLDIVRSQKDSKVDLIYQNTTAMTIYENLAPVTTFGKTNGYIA
The test is described as follows: PTP IC50 assay, pNPP or FDP as substrate. The settings on record: 25° C. The procedure:
as §1, §2, §3, §4, §5, §6
The full length DEP1 cDNA was isolated from a human mammary cDNA library (Clontech). The construction of GST-fusion proteins encompassing the entire cytoplasmic domain was done by PCR using the following oligos; 5′oligo: 5′-[…]-3′ (SEQ ID NO: 20) 3′oligo: 5′-[…]-3′ (SEQ ID NO: 21) It was subsequently ligated into the Eco RI/Bam H1 sites of pGEX 2T.

The target of the next test is T6, PTP EPSILON (Homo sapiens, UniProt P23469).
T6 construct: made in house; host or cells: Sf-9 insect cells (pFastBac-G2T); a pGEX 6P-1 construct also existed
T6 sequence (P23469 80-393 limits assumed): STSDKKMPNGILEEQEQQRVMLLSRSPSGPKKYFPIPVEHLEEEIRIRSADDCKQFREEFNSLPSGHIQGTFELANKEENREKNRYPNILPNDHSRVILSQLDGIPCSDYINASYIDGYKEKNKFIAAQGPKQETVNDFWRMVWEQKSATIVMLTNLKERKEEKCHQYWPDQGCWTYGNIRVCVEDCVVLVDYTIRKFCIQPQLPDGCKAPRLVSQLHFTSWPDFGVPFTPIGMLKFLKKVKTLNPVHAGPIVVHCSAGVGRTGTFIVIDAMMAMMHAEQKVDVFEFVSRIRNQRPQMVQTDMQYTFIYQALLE
The test can be described thus: PTP IC50 assay, fluorescent substrate DiFMUP.

Another test concerns the target T7, PTP SHP2 (Homo sapiens, UniProt Q06124).
T7 construct: The catalytic domain was amplified using the following oligonucleotides; made in house; host or cells: Sf-9 insect cells (pFastBac-G2T)
T7 sequence (Q06124 247-517 limits assumed): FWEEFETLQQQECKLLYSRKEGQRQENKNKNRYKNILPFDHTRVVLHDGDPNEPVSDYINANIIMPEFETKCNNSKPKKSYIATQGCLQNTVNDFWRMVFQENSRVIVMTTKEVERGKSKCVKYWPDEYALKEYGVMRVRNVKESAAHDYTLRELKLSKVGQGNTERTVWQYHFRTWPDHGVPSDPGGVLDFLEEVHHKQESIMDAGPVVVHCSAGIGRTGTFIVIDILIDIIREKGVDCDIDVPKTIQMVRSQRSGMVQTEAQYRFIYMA
The test is described as follows: PTP IC50 assay, fluorescent substrate DiFMUP.

Another test deals with T8, PTP 1B (Homo sapiens, UniProt P18031).
T8 construct: made in house; host or cells: Sf-9 insect cells (pFastBac-G2T)
T8 sequence (P18031 1-435): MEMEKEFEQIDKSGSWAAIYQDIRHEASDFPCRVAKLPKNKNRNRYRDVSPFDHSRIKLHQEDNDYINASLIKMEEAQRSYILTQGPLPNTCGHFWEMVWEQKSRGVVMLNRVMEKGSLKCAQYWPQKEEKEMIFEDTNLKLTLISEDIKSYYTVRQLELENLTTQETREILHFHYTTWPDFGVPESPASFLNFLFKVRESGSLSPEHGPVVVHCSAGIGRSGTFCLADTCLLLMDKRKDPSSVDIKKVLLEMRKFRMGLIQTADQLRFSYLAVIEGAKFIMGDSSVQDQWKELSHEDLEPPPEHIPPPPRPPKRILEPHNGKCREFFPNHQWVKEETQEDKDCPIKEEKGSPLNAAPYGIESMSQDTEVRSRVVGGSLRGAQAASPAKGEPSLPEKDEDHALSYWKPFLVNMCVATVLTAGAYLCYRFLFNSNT
The test can be described thus: PTP IC50 assay, fluorescent substrate DiFMUP.

Setting [1] is: DiFMUP as substrate, 25° C., read-out: PTP IC50 Epilson.
Setting [2] is: DiFMUP as substrate, 25° C., read-out: PTP IC50 SHP2.
Where [3] appears, read: DiFMUP as substrate, 25° C., read-out: PTP IC50 1B.

T2 sequence (P28827 831-1186 limits assumed): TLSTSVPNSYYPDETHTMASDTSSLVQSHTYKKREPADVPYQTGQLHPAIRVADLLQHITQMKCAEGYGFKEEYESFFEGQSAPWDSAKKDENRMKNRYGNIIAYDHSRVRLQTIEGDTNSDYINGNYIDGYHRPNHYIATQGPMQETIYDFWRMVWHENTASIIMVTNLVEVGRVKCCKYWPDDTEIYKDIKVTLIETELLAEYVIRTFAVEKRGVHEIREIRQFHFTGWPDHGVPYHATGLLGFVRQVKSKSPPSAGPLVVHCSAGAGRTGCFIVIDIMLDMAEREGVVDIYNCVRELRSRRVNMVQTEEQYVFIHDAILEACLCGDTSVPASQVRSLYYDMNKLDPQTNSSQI

Consider `O=S(=O)(c1ccc(SSc2ccc(S(=O)(=O)C(F)(F)F)cc2)cc1)C(F)(F)F` [Example 7, Bis (4-trifluoromethylsulfonylphenyl) disulfide], for which the pIC50 at PTP PEST is 4.66; at PTP MU, less than 4.00; at PTP ZETA it was less than 4.00; at PTP ALPHA it was less than 4.00; at PTP DEP1 it was 4.39.
In the case of `CCOC(=O)c1cc2cc(NS(=O)(=O)C(F)(F)F)ccc2n1CC(=O)O` [Example 95, 1-Carboxymethyl-5-trifluoromethanesulfonylamino-1H-indole-2-carboxylic acid ethyl ester], the pIC50 was less than 4.00 at PTP EPSILON (setting [1]), less than 4.70 on PTP SHP2 (setting [2]) and less than 4.00 on PTP 1B (setting [3]).
For `CCCN(C(C)=O)C(C(=O)NCC(=O)OCC)c1ccc(S(=O)(=O)C(F)(F)F)cc1` (centres unmarked) [Example 50, [2-(Acetyl-propyl-amino)-2-(4-trifluoromethanesulfonyl-phenyl)-acetylamino]-acetic acid ethyl ester], the negative logarithm of the IC50 (pIC50) on PTP EPSILON (setting [1]), at PTP SHP2 (setting [2]) and on PTP 1B (setting [3]) was less than 4.00 each time.
For the compound `CCCCNC(=O)C(c1ccc(S(=O)(=O)C(F)(F)F)cc1)N(Cc1ccccc1)C(=O)c1ccccc1` (centres unmarked) [Example 44, N-Benzyl-N-[butylcarbamoyl-(4-trifluoromethanesulfonyl-phenyl)-methyl]-benzamide], the pIC50 was 4.72 at PTP EPSILON (setting [1]), 4.64 on PTP SHP2 (setting [2]) and 4.80 on PTP 1B (setting [3]).
Taken in the same sequence, the figures for `O=C(Cc1ccccc1CC(=O)Nc1ccc(S(=O)(=O)C(F)(F)F)cc1)Nc1ccc(S(=O)(=O)C(F)(F)F)cc1` [Example 32, N-(4-Trifluoromethanesulfonyl-phenyl)-2-{2-[(4-trifluoromethanesulfonyl-phenylcarbamoyl)-methyl]-phenyl}-acetamide] were 4.76, 4.84 and 5.11.
As for `Cn1c(C(=O)Nc2ccccc2)cc2cc(NS(=O)(=O)C(F)(F)F)ccc21` [Example 80, 1-Methyl-5-trifluoromethanesulfonylamino-1H-indole-2-carboxylic acid phenylamide], the values for the pIC50 at PTP EPSILON (setting [1]), at PTP SHP2 (setting [2]) and on PTP 1B (setting [3]) were 4.57, 4.24 and less than 4.70, respectively.
Consider `O=[N+]([O-])c1cc(S(=O)(=O)C(F)(F)F)ccc1Oc1ccc(S(=O)(=O)c2ccc(Oc3ccc(S(=O)(=O)C(F)(F)F)cc3[N+](=O)[O-])cc2)cc1` [Example 63, Bis-{[4-(2-nitro-4-trifluoromethanesulfonyl)-phenoxy]-phenyl}sulfone], for which the pIC50 at PTP EPSILON was 5.62; at PTP SHP2, 6.40; on PTP 1B it was 6.15.
As for `CN(Cc1ccc2cc(C(=O)Nc3cccc(C(=O)O)c3)ccc2c1)S(=O)(=O)C(F)(F)F` [Example 93, 3-({6-[(Methyl-trifluoromethanesulfonyl-amino)-methyl]-naphthalene-2-carbonyl}-amino)-benzoic acid], the results for the pIC50 on PTP EPSILON (setting [1]), at PTP SHP2 (setting [2]) and at PTP 1B (setting [3]) were 5.13, 4.80 and 4.80, respectively.
Regarding `O=[N+]([O-])c1ccccc1NCC(O)COc1ccc(S(=O)(=O)C(F)(F)F)cc1[N+](=O)[O-]` (centres unmarked) [Example 58, 1-(2-Nitro-phenylamino)-3-(2-nitro-4-trifluoromethanesulfonyl-phenoxy)-propan-2-ol], the pIC50 on PTP EPSILON (setting [1]) is 4.54; at PTP SHP2 (setting [2]), 5.36; on PTP 1B (setting [3]) it was 5.03.
In the case of `O=C(O)c1ccc(NC(=O)c2cc3cc(NS(=O)(=O)C(F)(F)F)ccc3[nH]2)cc1` [Example 84, 4-[(5-Trifluoromethanesulfonylamino-1H-indole-2-carbonyl)-amino]-benzoic acid], the pIC50 was 4.79 on PTP EPSILON (setting [1]), 4.21 at PTP SHP2 (setting [2]) and less than 4.70 at PTP 1B (setting [3]).
